# Values quoted from earlier work as cited in patent publication US20050182136A1, “N-acetylcysteine compositions and methods for the treatment and prevention of endothelial dysfunction” (priority 2004, published 2005).
# What was measured:
# [1] = patients with end-stage renal failure, 600 mg twice a day
# [2] = animal experiments, daily NAC dose of 150 mg/kg, over no treatment
# [3] = oral NAC, intravenous contrast agents
# [4] = relative to NAC
smiles,measurement,setting,value
"CC(=O)N[C@@H](CS)C(=O)O [NAC, N-acetylcysteine]",various adverse cardiovascular events,[1],significantly reduced
same,cysteine levels,[2],substantially increase
same,glutathione levels,[2],substantially increase
same,increase of serum creatinine after the administration of the contrast agent,[3],significant reduction
"CC(=O)N[C@@H](CSSC[C@H](NC(C)=O)C(=O)O)C(=O)O [oxidized form of NAC, di-N-acetylcysteine]",bioactive at doses less than NAC,[4],10-100 fold
